Laboratory results published in patent US20090233948A1, “Inhibitors of nucleoside phosphorylases and nucleosidases” (priority 2005, published 2009).
Like-named read-outs stand apart in the source and are kept apart here.

Target: T1, human PNP (Homo sapiens, UniProt P00491)
T1 sequence (P00491 1-289): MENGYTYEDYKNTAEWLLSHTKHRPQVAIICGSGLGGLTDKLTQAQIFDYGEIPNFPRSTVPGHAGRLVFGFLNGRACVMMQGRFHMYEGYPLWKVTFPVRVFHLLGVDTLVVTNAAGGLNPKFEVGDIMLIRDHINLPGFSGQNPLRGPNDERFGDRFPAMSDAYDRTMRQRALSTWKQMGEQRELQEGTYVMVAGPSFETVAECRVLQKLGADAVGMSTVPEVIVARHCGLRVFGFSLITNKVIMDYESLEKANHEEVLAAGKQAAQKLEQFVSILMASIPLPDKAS
Test: Inhibition of human PNP: phosphorolysis of inosine, xanthine oxidase coupled spectrophotometric assay (slow-onset tight-binding analysis)
Format: biochemical
Conditions: huPNP 1.4 nM, 1 mM inosine, 50 mM KHPO4 pH 7.4, 25° C.
Protocol: Initial (Ki) and equilibrium (Ki*) dissociation constants of DAD-Et-Immucillin-H were determined for human PNP.
Inhibitor dissociation constants for the phosphorolysis of inosine were based on initial and equilibrium reaction rate measurements with varied inhibitor concentrations (Miles, R. W., Tyler, P. C., Furneaux, R. H., Bagdassarian, C. K. and Schramm, V. L. (1998) One-third-the-sites transition state inhibitors for purine nucleoside phosphorylase, Biochemistry 37, 8615-8621; Morrison, J. F. and Walsh, C. T. (1988) The behaviour and significance of slow-binding enzyme inhibitors, Adv. Enzymol. Relat. Areas Mol. Biol. 61, 201-301). […] Hypoxanthine formed by phosphorolysis of inosine was oxidized to uric acid and monitored spectrophotometrically at 293 nm (extinction coefficient for uric acid ε293=12.9 mM^−1cm^−1). Enzyme concentration was adjusted to give absorbance changes not exceeding 1.0 during the time required to characterize initial and final slow-onset inhibition equilibria. […] Ki was determined by fitting the initial rates at different inhibitor concentration to the equation for competitive inhibition: νi=(kcat×S)/(Km(1+I/Ki)+S), where μi is initial reaction rate, kcat is the catalytic turnover number, Km is the Michaelis constant, Ki is the dissociation constant of enzyme-inhibitor complex (EI), I is inhibitor concentration and S is substrate concentration. […]

Ki (after slow onset equilibrium, read-out: Equilibrium dissociation constant (Ki*)): 0.46 ± 0.05 nM
Ki (initial inhibitor binding step, read-out: Initial dissociation constant (Ki)): 1.6 ± 0.3 nM
Structure (SMILES): O=c1[nH]cnc2c(CCN3C[C@@H](CO)[C@H](O)C3)c[nH]c12 [Compound 1, (3S,4S)-1-[2-(9-Deaza-hypoxanthin-9-yl)ethyl]-3-hydroxy-4-hydroxymethylpyrrolidine]
